System: MDA-MB-231 cells
Assay: In vitro cytotoxicity, MTT assay
Details: various concentrations of PTX, 72 h

CC(=O)O[C@H]1C(=O)[C@@]2(C)[C@H]([C@H](OC(=O)c3ccccc3)[C@]3(O)C[C@H](OC(=O)[C@H](O)[C@@H](NC(=O)c4ccccc4)c4ccccc4)C(C)=C1C3(C)C)[C@]1(OC(C)=O)CO[C@@H]1C[C@@H]2O [PTX, Paclitaxel]
Cytotoxicity: exhibited cytotoxicity on MDA-MB-231 cells in a dose-dependent manner

Source: US20150065443A1, “EMBELIN-BASED DELIVERY SYSTEM FOR WATER-INSOLUBLE ACTIVE AGENTS” (priority 2012, published 2015)
